Laboratory results: patent US20130109682A1, “CYCLIC ETHER COMPOUNDS USEFUL AS KINASE INHIBITORS” (NOVARTIS AG, priority 2010, published 2013)

Assays:
PIM1 = PIM1 (Homo sapiens, UniProt P11309); assay: KinaseGlo Pim1 ATP depletion assay; type: biochemical
Method in brief: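 2.5 nM PIM1 preincubated 15 min with compound and 40 μM BAD peptide in 50 mM HEPES pH 7.5, 5 mM MgCl2, 1 mM DTT, 0.05% BSA, 2.5% DMSO. The reaction was started with 20 μM ATP (final) and run to about 50% ATP depletion. Remaining ATP read by KinaseGlo Plus luminescence to give IC50.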

PIM2 = PIM2 (Homo sapiens, UniProt Q9P1W9); assay: KinaseGlo Pim2 ATP depletion assay; type: biochemical
Sequence of PIM2 (Q9P1W9 whole entry): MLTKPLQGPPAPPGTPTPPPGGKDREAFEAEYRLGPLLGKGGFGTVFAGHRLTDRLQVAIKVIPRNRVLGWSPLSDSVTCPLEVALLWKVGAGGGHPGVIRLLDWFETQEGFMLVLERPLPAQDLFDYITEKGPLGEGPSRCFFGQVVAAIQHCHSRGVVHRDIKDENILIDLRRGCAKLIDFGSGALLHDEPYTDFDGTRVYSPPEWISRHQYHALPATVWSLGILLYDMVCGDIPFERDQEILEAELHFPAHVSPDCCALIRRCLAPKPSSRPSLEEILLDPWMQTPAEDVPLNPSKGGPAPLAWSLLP
Method in brief: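 Luminescent ATP-depletion read-out of PIM2 phosphorylating BAD peptide (RSRHSSYPAGT-OH). Final conditions: 5 nM PIM2, 4 μM ATP, 10 μM peptide, 2.5% DMSO in 50 mM HEPES pH 7.5, 5 mM MgCl2, 1 mM DTT, 0.05% BSA. Enzyme–peptide preincubated 15 min with compound; reaction run to ~50% ATP depletion.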

PIM3 = PIM3 (Homo sapiens, UniProt Q86V86); assay: KinaseGlo Pim3 ATP depletion assay; type: biochemical
Method in brief: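 Kinase was preincubated 15 min with BAD peptide in HEPES pH 7.5/MgCl2/DTT/BSA before ATP was added. Final concentrations were 40 μM ATP, 100 μM BAD peptide and 2.5% DMSO, with 5 nM enzyme. The reaction ran to ~50% ATP depletion and remaining ATP was read by KinaseGlo Plus luminescence.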

GSK3β = GSK3β (Homo sapiens, UniProt P49841); assay: GSK3β ATP depletion assay; type: biochemical; details: read-out: GSK3b IC50
Sequence of GSK3β (P49841 whole entry, species assumed): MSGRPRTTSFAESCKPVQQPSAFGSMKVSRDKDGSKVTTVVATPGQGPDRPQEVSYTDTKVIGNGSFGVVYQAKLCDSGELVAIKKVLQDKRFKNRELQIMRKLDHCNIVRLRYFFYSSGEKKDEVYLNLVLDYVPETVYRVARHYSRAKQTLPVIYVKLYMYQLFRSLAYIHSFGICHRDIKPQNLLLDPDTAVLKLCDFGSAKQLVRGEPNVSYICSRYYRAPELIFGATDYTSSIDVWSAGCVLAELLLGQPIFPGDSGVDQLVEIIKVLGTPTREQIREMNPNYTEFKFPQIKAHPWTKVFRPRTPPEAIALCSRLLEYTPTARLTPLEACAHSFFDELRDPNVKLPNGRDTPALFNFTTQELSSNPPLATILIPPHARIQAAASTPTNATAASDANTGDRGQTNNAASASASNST
Method in brief: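 Human GSK3β (5 nM) preincubated 15 min with 10 μM biotinylated phospho-CREB peptide in pH 7.5 Tris buffer (15 mM MgCl2, 1 mM DTT, 0.1% BSA, 2.5% DMSO). Reaction started with 2 μM ATP and run to about 50% ATP depletion. Remaining ATP measured by KinaseGlo luminescence.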

[1] = tested on: KMS11 (human myeloma cell line); assay: Cell proliferation assay (CellTiter-Glo), KMS11; type: cell-based; details: Homo sapiens, KMS-11; KMS11-Luc cells
Method in brief: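 KMS11 cells in IMDM with 10% FBS and sodium pyruvate, seeded at 2000 cells/well on assay day. Compound added at 2× to equal volume of cells, incubated 3 days at 37° C. Viability read by CellTiter-Glo luminescence; EC50 derived.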

Sequence of PIM1 (P11309 whole entry): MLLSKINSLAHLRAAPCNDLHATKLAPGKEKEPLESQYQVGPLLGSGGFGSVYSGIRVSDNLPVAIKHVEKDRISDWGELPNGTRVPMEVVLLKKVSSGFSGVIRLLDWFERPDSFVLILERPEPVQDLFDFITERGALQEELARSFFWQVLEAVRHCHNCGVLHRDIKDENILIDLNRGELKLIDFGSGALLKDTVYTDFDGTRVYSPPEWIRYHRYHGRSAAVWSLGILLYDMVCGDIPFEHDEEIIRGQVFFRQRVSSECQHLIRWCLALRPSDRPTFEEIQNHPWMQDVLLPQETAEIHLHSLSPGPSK

IC50 (PIM1) | IC50 (PIM2) | IC50 (PIM3) | IC50 (GSK3β) | EC50 [1] | SMILES
0.028 µM | 2.89 µM | 0.103 µM | 2 µM | > 10 µM | O=C(Nc1cnccc1[C@H]1OCC[C@@H](CO)O1)c1csc(-c2c(F)cccc2F)n1 [Example 102, 2-(2,6-difluorophenyl)-N-(4-((2S,4S)-4-(hydroxymethyl)-1,3-dioxan-2-yl)pyridin-3-yl)thiazole-4-carboxamide]
0.011 µM | 0.502 µM | 0.027 µM | 2.42 µM | > 10 µM | O=C(Nc1cnccc1[C@H]1OCC[C@@H](CO)O1)c1ccc(F)c(-c2c(F)cccc2F)n1 [Example 103, 6-(2,6-difluorophenyl)-5-fluoro-N-(4-((2S,4S)-4-(hydroxymethyl)-1,3-dioxan-2-yl)pyridin-3-yl)picolinamide]
0.001 µM | 0.05 µM | 0.006 µM | 1.18 µM | 4.7 µM | CC(C)NC(=O)c1ccc(F)c(-c2nc(C(=O)Nc3cnccc3[C@H]3C[C@@H](O)[C@](C)(O)[C@@H](C)O3)ccc2F)c1 [Example 105, N-(4-((2R,4R,5S,6R)-4,5-dihydroxy-5,6-dimethyltetrahydro-2H-pyran-2-yl)pyridin-3-yl)-5-fluoro-6-(2-fluoro-5-(isopropylcarbamoyl)phenyl)picolinamide]
0.007 µM | 0.078 µM | 0.015 µM | 3.59 µM | 9.2 µM | CC(C)NC(=O)c1ccc(F)c(-c2cccc(C(=O)Nc3cnccc3[C@H]3C[C@@H](O)[C@](C)(O)[C@@H](C)O3)n2)c1 [Example 106, N-(4-((2R,4R,5S,6R)-4,5-dihydroxy-5,6-dimethyltetrahydro-2H-pyran-2-yl)pyridin-3-yl)-6-(2-fluoro-5-(isopropylcarbamoyl)phenyl)picolinamide]
0.002 µM | 0.02 µM | 0.004 µM | 0.196 µM | 5.9 µM | C[C@@H]1O[C@H](c2ccncc2NC(=O)c2ccc(F)c(-c3c(F)cccc3F)n2)C[C@@H](O)[C@H]1O [Example 107, 6-(2,6-difluorophenyl)-N-(4-((2S,4R,5R,6S)-4,5-dihydroxy-6-methyltetrahydro-2H-pyran-2-yl)pyridin-3-yl)-5-fluoropicolinamide]
0.001 µM | 0.015 µM | 0.005 µM | 0.344 µM | 4.2 µM | C[C@H]1O[C@@H](c2ccncc2NC(=O)c2ccc(F)c(-c3c(F)cccc3F)n2)C[C@H](O)[C@@H]1O [Example 108, 6-(2,6-difluorophenyl)-N-(4-((2R,4S,5S,6R)-4,5-dihydroxy-6-methyltetrahydro-2H-pyran-2-yl)pyridin-3-yl)-5-fluoropicolinamide]
0.005 µM | 0.142 µM | 0.011 µM | 0.064 µM | > 10 µM | C[C@@H]1O[C@H](c2ccncc2NC(=O)c2csc(-c3c(F)cccc3F)n2)C[C@H](N)[C@H]1O [Example 113, N-(4-((2S,4S,5R,6S)-4-amino-5-hydroxy-6-methyltetrahydro-2H-pyran-2-yl)pyridin-3-yl)-2-(2,6-difluorophenyl)thiazole-4-carboxamide]
0.004 µM | 0.144 µM | 0.014 µM | 0.652 µM | 1.5 µM | C[C@H]1O[C@@H](c2ccncc2NC(=O)c2csc(-c3c(F)cccc3F)n2)C[C@@H](N)[C@@H]1O [Example 114, N-(4-((2R,4R,5S,6R)-4-amino-5-hydroxy-6-methyltetrahydro-2H-pyran-2-yl)pyridin-3-yl)-2-(2,6-difluorophenyl)thiazole-4-carboxamide]
0.002 µM | 0.023 µM | 0.007 µM | 3.06 µM | 1.9 µM | C[C@H]1O[C@@H](c2ccncc2NC(=O)c2ccc(F)c(-c3c(F)cccc3F)n2)C[C@@H](N)[C@@H]1O [Example 116, N-(4-((2R,4R,5S,6R)-4-amino-5-hydroxy-6-methyltetrahydro-2H-pyran-2-yl)pyridin-3-yl)-6-(2,6-difluorophenyl)-5-fluoropicolinamide]
0.008 µM | 2.48 µM | 0.04 µM | 2.73 µM | 9.5 µM | O=C(Nc1cnccc1C1OCCCO1)c1csc(-c2c(F)cccc2F)n1 [Example 117, N-(4-(1,3-dioxan-2-yl)pyridin-3-yl)-2-(2,6-difluorophenyl)thiazole-4-carboxamide]
0.004 µM | 0.363 µM | 0.017 µM | 3.52 µM | > 10 µM | O=C(Nc1cnccc1C1OCCCO1)c1ccc(F)c(-c2c(F)cccc2F)n1 [Example 118, N-(4-(1,3-dioxan-2-yl)pyridin-3-yl)-6-(2,6-difluorophenyl)-5-fluoropicolinamide]
0.001 µM | 0.011 µM | 0.002 µM | 0.629 µM | 7.2 µM | C[C@H]1O[C@@H](c2ccncc2NC(=O)c2ccc(F)c(-c3c(F)cccc3F)n2)C[C@@H](O)[C@@H]1O [Example 119, 6-(2,6-difluorophenyl)-N-(4-((2R,4R,5S,6R)-4,5-dihydroxy-6-methyltetrahydro-2H-pyran-2-yl)pyridin-3-yl)-5-fluoropicolinamide]
0.002 µM | 0.012 µM | 0.003 µM | 0.798 µM | > 10 µM | C[C@@H]1O[C@H](c2ccncc2NC(=O)c2ccc(F)c(-c3c(F)cccc3F)n2)C[C@H](O)[C@H]1O [Example 120, 6-(2,6-difluorophenyl)-N-(4-((2S,4S,5R,6S)-4,5-dihydroxy-6-methyltetrahydro-2H-pyran-2-yl)pyridin-3-yl)-5-fluoropicolinamide]
0.012 µM | 2.35 µM | 0.084 µM | 0.228 µM | > 10 µM | O=C(Nc1cnccc1[C@@H]1C[C@H](O)CCO1)c1csc(-c2c(F)cccc2F)n1 [Example 130, 2-(2,6-difluorophenyl)-N-(4-((2S,4R)-4-hydroxytetrahydro-2H-pyran-2-yl)pyridin-3-yl)thiazole-4-carboxamide]
0.003 µM | 1.11 µM | 0.022 µM | 0.216 µM | > 10 µM | O=C(Nc1cnccc1[C@H]1C[C@@H](O)CCO1)c1csc(-c2c(F)cccc2F)n1 [Example 131, 2-(2,6-difluorophenyl)-N-(4-((2R,4S)-4-hydroxytetrahydro-2H-pyran-2-yl)pyridin-3-yl)thiazole-4-carboxamide]
0.006 µM | 0.465 µM | 0.033 µM | 0.196 µM | > 10 µM | O=C(Nc1cnccc1[C@@H]1C[C@H](O)CCO1)c1ccc(F)c(-c2c(F)cccc2F)n1 [Example 132, 6-(2,6-difluorophenyl)-5-fluoro-N-(4-((2S,4R)-4-hydroxytetrahydro-2H-pyran-2-yl)pyridin-3-yl)picolinamide]
0.003 µM | 0.214 µM | 0.01 µM | 2.2 µM | > 10 µM | O=C(Nc1cnccc1[C@@H]1CCCCO1)c1ccc(F)c(-c2c(F)cccc2F)n1 [Example 133, (S)-6-(2,6-difluorophenyl)-5-fluoro-N-(4-(tetrahydro-2H-pyran-2-yl)pyridin-3-yl)picolinamide]
0.01 µM | 0.678 µM | 0.4 µM | 0.759 µM | > 10 µM | O=C(Nc1cnccc1[C@H]1CCCCO1)c1ccc(F)c(-c2c(F)cccc2F)n1 [Example 134, (R)-6-(2,6-difluorophenyl)-5-fluoro-N-(4-(tetrahydro-2H-pyran-2-yl)pyridin-3-yl)picolinamide]
0.003 µM | 0.023 µM | 0.005 µM | 0.351 µM | > 10 µM | N#CC[C@H]1O[C@@H](c2ccncc2NC(=O)c2ccc(F)c(-c3c(F)cccc3F)n2)C[C@@H](O)[C@@H]1O [Example 137, N-(4-((2R,4R,5S,6R)-6-(cyanomethyl)-4,5-dihydroxytetrahydro-2H-pyran-2-yl)pyridin-3-yl)-6-(2,6-difluorophenyl)-5-fluoropicolinamide]
0.024 µM | 0.027 µM | 0.014 µM | 0.235 µM | > 10 µM | N#CC[C@H]1O[C@@H](c2ccncc2NC(=O)c2nc(-c3c(F)cccc3F)ncc2N)C[C@@H](O)[C@@H]1O [Example 138, 5-amino-N-(4-((2R,4R,5S,6R)-6-(cyanomethyl)-4,5-dihydroxytetrahydro-2H-pyran-2-yl)pyridin-3-yl)-2-(2,6-difluorophenyl)pyrimidine-4-carboxamide]
